The record followed here is patent US12306176B2, “Microfluidic bi-directional migration assay” (Ohio State Innovation Foundation, priority 2017, dated 2025).

The subject of test [1] is MDA-MB-231 cells. In words: Microfluidic bi-directional migration (MBDM) assay, mean migration speed and persistence. Type of test: cell-based, human. An excerpt: To quantify the effects of iEF treatment on directed cell migration speed and persistence, a custom microfluidic bi-directional microtrack (MBDM) assay was developed that enables real-time monitoring with time-lapse microscopy of cell motility.
In this study, the EF sensing mechanisms of breast cancer cells in response to asymmetric iEFs (<100 μV/cm) was investigated. Using a MBDM assay, changes in the speed and persistence of spontaneously migrating MDA-MB-231 breast cancer cells were observed. This cell type was selected for these studies because it is a putative metastatic breast cancer cell line that is also responsive to gradients of a chemoattractant such as EGF (Wang S J, et al. (2004) Exp Cell Res 300 (1):180-189; Wu A, et al. (2013) Proc Natl Acad Sci U S A 110(40):16103-16108). […] This configuration enables direct comparison of cell movement in response to iEFs applied primarily with the direction of cell migration (“parallel”) or against the direction of cell migration (“anti-parallel”) within the same microfluidic device. Here, the field direction is defined as the direction that has the higher peak magnitude, as well as higher time-average field strength.
To calculate persistence, the following protocol was followed for each cell tracked in a microtrack of the MBDM assay. A cell starts at position Pt at time t. After a single time increment, dt, the cell moves to a new position, Pt+dt. The distance traveled during this time is the absolute difference in the two positions denoted as Li: Li=|Pt+dt−Pt|
The total distance traveled is then the sum of all distances traveled during N time increments denoted as Lt. Additionally, the total time of travel is the number of time increments multiplied by the size of the time increments denoted as Tt.
The displacement is simply the difference between the final and initial position: Ld=|PFinal−PInitial|
The MBDM assay was designed to have three ports separated by 700 μm long arrays of parallel microtracks (FIG. 1D). The dimension of each port was 50 mm×15 mm. Cells were seeded in the center port and the top and bottom ports were designated as cell collection port and/or chemokine source reservoir port depending on the experimental condition. Microchannels were designed to have a square cross-section of 20 μm×20 μm. The cross-section dimensions were on the same order as the size of single cells and mimic the dimensions of pre-existing microtracks available to cells in-vivo (Kraning-Rush C M, et al. (2013) lntegr Biol (Camb). 5 (3):606-616). Moreover, these migratory tracks are representative of physiologically relevant matrix metalloproteinase independent cancer-cell migration mode during metastasis (Friedl P & Alexander S (2011) Cell 147 (5):992-1009; Wolf K, et al. (2009) Semin Cell Dev Biol. 20 (8):931-941; Friedl P & Wolf K (2003) Nat Rev Cancer. 3 (5):362; Wolf K, et al. (2007) Nat Cell Biol. 9 (8):893; Wolf K, et al. (2003) J Cell Biol. 160 (2):267-277). The bi-directional design of this assay allows cells to migrate in either direction from the seeding port and provides a better understanding and quantification of the directional bias of external cues such as chemokine gradients and the directional effects of applied iEFs. The large ports for cell seeding ensure uniform seeding density, excellent cell viability, and repeatability.
Cells were washed in culture plates with 1×PBS solution, treated with 0.05% trypsin-EDTA solution (Sigma-Aldrich), and then counted using a hemocytometer. Cells (2×10^5) suspended in migration media were seeded in the middle port (seeding port) with an extremely small flow from the collection ports to the seeding port, which equilibrated in less than 15 minutes. The cells inside the devices were then incubated for 12 hours in migration media following which the media was aspirated and replaced with new media based on the experimental conditions. […]

Test [2] relates to MDA-MB-231 cells. In words: Modified transwell migration assay. Type of test: cell-based, human. The conditions noted are these: EGF 100 ng/mL in bottom chamber, 8 hours. An excerpt: In addition to the MBDM assay, the modified transwell migration assay (Ahirwar D K, et al. (2015) Sci Rep 5:11005.) was used to determine the effects of standalone iEF treatment on number of cells migrated to complement the speed and persistence data obtained from the MBDM assay. iEF treatment alone had no significant effect (neither stimulatory nor inhibitory) on the total number of MDA-MB-231 cells that spontaneously migrated across the transwell membrane (˜10 μm thick) compared to the untreated control (FIG. 8). These outcomes occurred for both anti-parallel and parallel directions of iEF application.
Transwell permeable supports that have 6.5 mm diameter inserts of polycarbonate membrane with 8 μm diameter pore size (Corning, CLS3422) were used in the experiments reported here. […] Cell migration numbers were then quantified using a custom MATLAB script as described in Image Acquisition and Processing. […]
Images from experiments with the transwell migration assays were taken using a stereo microscope (Leica Microsystems Inc.) after fixation and staining of the cells using the HEMA 3 solution kit (Fisher Scientific). […] The images were then imported into MATLAB and analyzed using a custom code (MATLAB script). […] The average area of a cell was determined from the mean of manual measurements of approximately 20 isolated cells for each case. […]

For epidermal growth factor [EGF], the mean migration speed in the test with MDA-MB-231 cells [1] (EGF gradient (25 ng/mL) alone, no iEF, no inhibitor) worked out at 0.43 μm/min. Further, in the test with MDA-MB-231 cells [1] (stable EGF gradient alone), the average persistence is listed as 0.84, the “increase of persistence compared to untreated control” value came to 6% and the “mean migration speed compared to untreated controls” value is given as “increased significantly”. The “transmigration compared to untreated controls” value with MDA-MB-231 cells [2] was “significantly promoted”.
